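These data come from cells grown in 96-well plates and exposed to compound for 48 hours at five concentrations. TGI marks complete inhibition of growth.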
Tests used:
Test in all cases: DTP human tumour cell line panel, 48 h
[1] = test system: CAKI-1 renal
[2] = test system: NCI-H522 lung
[3] = test system: RPMI-8226 leukemia
[4] = test system: KM12 colon
[5] = test system: MCF7 breast
[6] = test system: OVCAR-3 ovarian
[7] = test system: NCI/ADR-RES ovarian
[8] = test system: SK-MEL-5 melanoma
[9] = test system: HCT-116 colon
[10] = test system: SF-295 CNS
[11] = test system: TK-10 renal
[12] = test system: U251 CNS
[13] = test system: IGROV1 ovarian
[14] = test system: T-47D breast
[15] = test system: ACHN renal
[16] = test system: SR leukemia
[17] = test system: PC-3 prostate
[18] = test system: SK-MEL-2 melanoma
[19] = test system: A549 NSCLC
[20] = test system: CCRF-CEM leukemia
[21] = test system: SK-MEL-28 melanoma
[22] = test system: SK-OV-3 ovarian
[23] = test system: EKVX NSCLC
[24] = test system: HCT-15 colon
[25] = test system: UACC-257 melanoma
[26] = test system: OVCAR-5 ovarian
[27] = test system: HS 578T breast
[28] = test system: MALME-3M melanoma
[29] = test system: NCI-H23 lung
[30] = test system: OVCAR-8 ovarian
[31] = test system: SF-539 CNS
[32] = test system: LOX IMVI melanoma
[33] = test system: OVCAR-4 ovarian
[34] = test system: SNB-75 CNS
[35] = test system: HCC-2998 colon
[36] = test system: A498 renal
[37] = test system: HT29 colon
[38] = test system: K-562 leukemia
[39] = test system: COLO 205 colon
[40] = test system: SNB-19 CNS
[41] = test system: SF-268 CNS
[42] = test system: HOP-92 NSCLC
[43] = test system: DU-145 prostate
[44] = test system: BT-549 breast
[45] = test system: MOLT-4 leukemia
[46] = test system: HL-60(TB) leukemia
[47] = test system: HOP-62 NSCLC
[48] = test system: RXF 393 renal
[49] = test system: M14 melanoma
[50] = test system: SN12C renal
[51] = test system: MDA-N
[52] = test system: 786-0 renal
[53] = test system: NCI-H460 lung
[54] = test system: SW-620 colon
[55] = test system: UO-31 renal
[56] = test system: NCI-H226 lung
[57] = test system: MDA-MB-231 breast
[58] = test system: UACC-62 melanoma
[59] = test system: MDA-MB-435

Measured: TGI

Cn1c2ccc3cc2c(=S)c2cc(ccc21)OCCOCCOCCOCCOCCOCCO3
not listed: [57] | [58] | [59]
> 10 µM: all other assays above

COc1cccc(C2SC(N)=Nc3c2c(C)nn3C(=O)c2ccccc2O)c1 (stereo not drawn)
> 7.61 µM: [6]
> 7.36 µM: [16]
> 9.64 µM: [57]
> 2.64 µM: [31]
> 8.45 µM: [33]
> 7.78 µM: [56]
not listed: [27] | [46]
> 10 µM: all other assays above

From PubChem BioAssay (NCI)
